Experimental data taken from patent US9580444B2, “Polycyclic pyrazolinone derivative and herbicide comprising same as effective component thereof” (priority 2013, dated 2017).

Assays:
Type in all cases: in vivo
[1] = tested on: Chenopodium album (common lambsquarters); experiment: Test Example-4: herbicidal effect by a foliage treatment after weeds are generated under upland field conditions; details: 500 g a.i/ha, foliage treatment after emergence, about 14 days after treatment, score 0-5
Outline: (§1)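 Read-out is a visual six-stage score from 0 to 5 for weed control or corn phytotoxicity, taken about 14 days after a uniform foliar spray. Plants had grown 14 days from seed in upland soil before the compound was applied at a predetermined dosage in 4000 L water per hectare.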

[2] = tested on: Amaranthus viridis (green amaranthus); experiment: as above; details: 500 g a.i/ha, foliage treatment after emergence, about 14 days after treatment, score 0-5
Outline: as §1

[3] = tested on: Abutilon theophrasti (velvetleaf); experiment: as above; details: 500 g a.i/ha, foliage treatment after emergence, about 14 days after treatment, score 0-5
Outline: as §1

[4] = tested on: Cyperus difformis (smallflower umbrella plant); experiment: Test Example-1: herbicidal effect by a treatment before weeds are generated under submerged conditions; details: 500 g a.i/ha, pre-emergence treatment, about 15 days after treatment, score 0-5
Outline: (§2)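 Weed seeds were sown in puddled paddy soil under flooding, then the diluted formulated compound was added to the water the same day at a predetermined dosage, and weed control was rated roughly 15 days afterwards in six stages (0–5).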

[5] = tested on: Monochoria vaginalis (monochoria); experiment: as above; details: 500 g a.i/ha, pre-emergence treatment, about 15 days after treatment, score 0-5
Outline: as §2

[6] = tested on: Scirpus juncoides (bulrush); experiment: as above; details: 500 g a.i/ha, pre-emergence treatment, about 15 days after treatment, score 0-5
Outline: as §2

[7] = tested on: Eleocharis acicularis (needle spikerush); experiment: as above; details: 500 g a.i/ha, pre-emergence treatment, about 15 days after treatment, score 0-5
Outline: as §2

[8] = tested on: other annual broad leaf weeds (Lindernia procumbens, Rotala indica, Elatine triandra); experiment: as above; details: 500 g a.i/ha, pre-emergence treatment, about 15 days after treatment, score 0-5
Outline: as §2

[9] = tested on: Echinochloa oryzicola (barnyard grass); experiment: as above; details: 500 g a.i/ha, pre-emergence treatment, about 15 days after treatment, score 0-5
Outline: as §2

[10] = tested on: corn; experiment: Test Example-4: phytotoxicity by a foliage treatment after weeds are generated under upland field conditions; details: 500 g a.i/ha, foliage treatment after emergence, about 14 days after treatment, score 0-5
Outline: as §1

Compound	Herbicidal effect Chenopodium album [1]	Herbicidal effect Amaranthus viridis [2]	Herbicidal effect Abutilon theophrast [3]	Herbicidal effect Cyperus difformis [4]	Herbicidal effect Monochoria vaginalis [5]	Herbicidal effect Scirpus juncoides [6]	Herbicidal effect Eleocharis acicularis [7]	Herbicidal effect Broadleaf weed [8]	Herbicidal effect Echinochloa oryzicola [9]	Phytotoxicity Corn [10]
O=c1c(-c2cc(OCC3CC3)c(Cl)cc2F)c(Cl)n2n1CCCC2 [Example 1-176]	5 (Herbicidal effect/phytotoxicity was 90% or greater)	5 (Herbicidal effect/phytotoxicity was 90% or greater)	5 (Herbicidal effect/phytotoxicity was 90% or greater)	5 (Herbicidal effect/phytotoxicity was 90% or greater)	5 (Herbicidal effect/phytotoxicity was 90% or greater)	5 (Herbicidal effect/phytotoxicity was 90% or greater)	5 (Herbicidal effect/phytotoxicity was 90% or greater)	5 (Herbicidal effect/phytotoxicity was 90% or greater)	5 (Herbicidal effect/phytotoxicity was 90% or greater)	2 (Herbicidal effect/phytotoxicity was 30% to 50%)
O=c1c(-c2cc(OCC=Cc3ccc(F)cc3)c(Cl)cc2F)c(Cl)n2n1CCCC2 [Example 1-226]	5 (Herbicidal effect/phytotoxicity was 90% or greater)	5 (Herbicidal effect/phytotoxicity was 90% or greater)	5 (Herbicidal effect/phytotoxicity was 90% or greater)	5 (Herbicidal effect/phytotoxicity was 90% or greater)	5 (Herbicidal effect/phytotoxicity was 90% or greater)	5 (Herbicidal effect/phytotoxicity was 90% or greater)	5 (Herbicidal effect/phytotoxicity was 90% or greater)	5 (Herbicidal effect/phytotoxicity was 90% or greater)	5 (Herbicidal effect/phytotoxicity was 90% or greater)	3 (Herbicidal effect/phytotoxicity was 50% to 70%)
C#CCOc1cc(-c2c(Cl)n3n(c2=O)CCCC3)ccc1Cl [Example 1-62]	5 (Herbicidal effect/phytotoxicity was 90% or greater)	5 (Herbicidal effect/phytotoxicity was 90% or greater)	5 (Herbicidal effect/phytotoxicity was 90% or greater)	5 (Herbicidal effect/phytotoxicity was 90% or greater)	5 (Herbicidal effect/phytotoxicity was 90% or greater)	5 (Herbicidal effect/phytotoxicity was 90% or greater)	5 (Herbicidal effect/phytotoxicity was 90% or greater)	5 (Herbicidal effect/phytotoxicity was 90% or greater)	5 (Herbicidal effect/phytotoxicity was 90% or greater)	0 (Herbicidal effect/phytotoxicity was 0% to 10%)
N#CCOc1cc(-c2c(Cl)n3n(c2=O)CCCC3)c(F)cc1Cl [Example 1-171]	5 (Herbicidal effect/phytotoxicity was 90% or greater)	5 (Herbicidal effect/phytotoxicity was 90% or greater)	5 (Herbicidal effect/phytotoxicity was 90% or greater)	5 (Herbicidal effect/phytotoxicity was 90% or greater)	5 (Herbicidal effect/phytotoxicity was 90% or greater)	5 (Herbicidal effect/phytotoxicity was 90% or greater)	5 (Herbicidal effect/phytotoxicity was 90% or greater)	5 (Herbicidal effect/phytotoxicity was 90% or greater)	5 (Herbicidal effect/phytotoxicity was 90% or greater)	3 (Herbicidal effect/phytotoxicity was 50% to 70%)
C#CCOc1cc(-c2c(Cl)n3n(c2=O)CCCC3)c(F)cc1F [Example 1-113]	5 (Herbicidal effect/phytotoxicity was 90% or greater)	5 (Herbicidal effect/phytotoxicity was 90% or greater)	5 (Herbicidal effect/phytotoxicity was 90% or greater)	5 (Herbicidal effect/phytotoxicity was 90% or greater)	5 (Herbicidal effect/phytotoxicity was 90% or greater)	5 (Herbicidal effect/phytotoxicity was 90% or greater)	5 (Herbicidal effect/phytotoxicity was 90% or greater)	5 (Herbicidal effect/phytotoxicity was 90% or greater)	5 (Herbicidal effect/phytotoxicity was 90% or greater)	3 (Herbicidal effect/phytotoxicity was 50% to 70%)
O=c1c(-c2cc(OC3CCCC3)c(Cl)cc2Cl)c(Cl)n2n1CCCC2 [Example 1-307]	5 (Herbicidal effect/phytotoxicity was 90% or greater)	5 (Herbicidal effect/phytotoxicity was 90% or greater)	5 (Herbicidal effect/phytotoxicity was 90% or greater)	5 (Herbicidal effect/phytotoxicity was 90% or greater)	5 (Herbicidal effect/phytotoxicity was 90% or greater)	5 (Herbicidal effect/phytotoxicity was 90% or greater)	5 (Herbicidal effect/phytotoxicity was 90% or greater)	5 (Herbicidal effect/phytotoxicity was 90% or greater)	5 (Herbicidal effect/phytotoxicity was 90% or greater)	0 (Herbicidal effect/phytotoxicity was 0% to 10%)
C=CCOc1cc(-c2c(Cl)n3n(c2=O)CCCC3)c(F)cc1F [Example 1-101]	5 (Herbicidal effect/phytotoxicity was 90% or greater)	5 (Herbicidal effect/phytotoxicity was 90% or greater)	5 (Herbicidal effect/phytotoxicity was 90% or greater)	5 (Herbicidal effect/phytotoxicity was 90% or greater)	5 (Herbicidal effect/phytotoxicity was 90% or greater)	5 (Herbicidal effect/phytotoxicity was 90% or greater)	5 (Herbicidal effect/phytotoxicity was 90% or greater)	5 (Herbicidal effect/phytotoxicity was 90% or greater)	5 (Herbicidal effect/phytotoxicity was 90% or greater)	3 (Herbicidal effect/phytotoxicity was 50% to 70%)
COc1cc(-c2c(Cl)n3n(c2=O)CCCC3)c(F)cc1F [Example 1-87]	5 (Herbicidal effect/phytotoxicity was 90% or greater)	5 (Herbicidal effect/phytotoxicity was 90% or greater)	5 (Herbicidal effect/phytotoxicity was 90% or greater)	5 (Herbicidal effect/phytotoxicity was 90% or greater)	5 (Herbicidal effect/phytotoxicity was 90% or greater)	5 (Herbicidal effect/phytotoxicity was 90% or greater)	5 (Herbicidal effect/phytotoxicity was 90% or greater)	5 (Herbicidal effect/phytotoxicity was 90% or greater)	5 (Herbicidal effect/phytotoxicity was 90% or greater)	2 (Herbicidal effect/phytotoxicity was 30% to 50%)
